Test results as given in US20190175528A1, “INHIBITION OF BIOFILM ORGANISMS” (NovaBiotics Limited, priority 2009, published 2019).
Where two headings read alike, the source gives them in different places.

How the values were obtained:
[1] = tested on: S. aureus DSM 11729 (MRSA); assay: microbe, parasite or virus in culture; assay type: cell-based, Staphylococcus aureus
Procedure: (§1) The bacterial inoculum was established by the dilution method from actively-growing cultures in Mueller-Hinton broth, standardized with 0.5 McFarland turbidity standard as described in the CLSI method M26-A.
(§2) To determine the prevention of biofilm formation, both the bacterial inoculum and the antimicrobial agents were added simultaneously to the plates. The plates were incubated at 37° C. for 24 h and the optical density was read at 625 nm on a microtitre plate reader (BioTek Powerwave XS, Winooski, USA). The MIC was obtained as the lowest concentration of antimicrobial showing total inhibition of bacterial growth. […]
(§3) FIC=MICA[combination]/MICA[alone]+MICB[combination]/MICB[alone] […]
(§4) In order to assess for the prevention of biofilm formation by both Gram-positive and Gram-negative bacteria, the bacterial inoculum and antimicrobial agents were added simultaneously in the plates. The range of concentrations of antimicrobial agents was 0-500 μg/ml NP108 and 0-320 μg/ml cysteamine against the Gram-negative bacteria P. aeruginosa ATCC BAA-47 and 0-1000 μg/ml NP108 and 0-320 μg/ml cysteamine against the Gram-positive MRSA.

[2] = tested on: P. aeruginosa ATCC BAA-47; assay: microbe, parasite or virus in culture; assay type: cell-based, Pseudomonas aeruginosa
Procedure: as §1, §2, §3, §4

[3] = tested on: P. aeruginosa strains (7); assay: microbe, parasite or virus in culture; assay type: cell-based, Pseudomonas aeruginosa; conditions: agent alone, range over strains
Procedure: as §1
(§5) To determine the prevention of biofilm formation, both the bacterial inoculum and the antimicrobial agents were added simultaneously to the plates. The plates were incubated at 37° C. for 24 h and the optical density was read at 625 nm on a microtitre plate reader (BioTek Powerwave XS, Winooski, USA). The MIC was obtained as the lowest concentration of antimicrobial showing total inhibition of bacterial growth.
(§6) The FIC corresponds to an interaction coefficient indicating whether the combination of antimicrobial agents is synergistic, additive, antagonist or neutral. The FIC is determined by comparing the activity of an agent in combination (MIC of agent A+agent B) with the activity of the agent alone (MIC of agent A or agent B) as follow (Singh et al., 2000):
(§7) FIC=MICA[combination]/MICA[alone]+MICB[combination]/MICB[alone]
(§8) Additive combinations of two antimicrobial agents are indicated by a FIC index of 1, whereas a FIC index <1 indicates synergistic combinations. Neutral combinations would give a FIC between 1 and 4, a FIC index higher than 4 indicates antagonist effects between the two antimicrobial agents.
(§9) Summary of the activity of the tested antimicrobial agents against the Gram-negative P. aeruginosa strains and the Gram-positive Staphylococcus spp. The number into brackets indicates the maximum number of strains tested. MIC: minimum inhibition concentration; MBEC: minimum biofilm eradication concentration; FIC: fractional inhibitory concentration.

Staphylococcus spp (4) = assay: microbe, parasite or virus in culture; assay type: cell-based; conditions: agent alone, range over strains
Procedure: as §1, §5, §6, §7, §8, §9

[4] = tested on: P. aeruginosa strains (7) biofilm cells; assay type: cell-based, Pseudomonas aeruginosa; conditions: agent alone
Procedure: (§10) The FIC was also calculated to assess the interaction of two antimicrobial agents in combination against bacterial biofilms. The same formulae applied, using MBEC instead of MIC.
(§11) A total volume of 100 μl bacterial inoculum in Mueller-Hinton was added to each well of 96-well plates (challenge plates) and the plates were incubated at 37° C. for 24 h on a gyrorotary shaking platform (Grant-bio PS-3D, Shepreth, England) at 24 rpm to allow for biofilm formation.
(§12) The challenge plates were then rinsed once with sterile PBS (lx) and two-fold serial dilutions of antimicrobial agents in Mueller-Hinton were added to the challenge plates. The challenge plates were incubated at 37° C. for 24 h on a gyrorotary shaking platform (Grant-bio PS-3D, Shepreth, England) at 24 rpm.
(§13) The supernatants from each of the challenge plates were transferred into fresh plates and the optical density was measured at 625 nm on a microtitre plate reader (BioTek Powerwave XS, Winooski, USA). The MBEC was obtained by the lowest concentration of antimicrobial showing no bacterial growth.
as §9

[5] = tested on: Staphylococcus spp (4) biofilm cells; assay type: cell-based; conditions: agent alone; biofilm cells
Procedure: as §10, §11, §12, §13, §9

[6] = tested on: P. aeruginosa strains (7) persister cells; assay: Persister cells in biofilms (live/dead staining), summary over strains; assay type: cell-based, Pseudomonas aeruginosa; conditions: agent alone
Procedure: (§14) Following transfer of the supernatant from the challenge plates, the biofilms were rinsed once with sterile PBS (lx) and 100 μl of BacLight live/dead fluorescent staining solution (Invitrogen, Paisley, UK) containing 4 μM SYTO9 and 20 μM propidium iodide (PI) in sterile PBS (lx) were added to the wells of the challenge plates. The plates were incubated at room temperature in the dark for 15 min and the fluorescence was read at 485(ex)/528(em) and 485(ex)/645(em) for SYTO9 and PI fluorescence, respectively on a fluorescence microtitre plate reader (BioTek Synergy HT, Winooski, USA) with the sensitivity set at 50 and bottom optics position was selected. Direct observation of the biofilms with an Axiovert 40 fluorescence microscope (Zeiss, Gottingen, Germany) allowed identifying the presence of live and dead bacteria and pictures of the biofilms were taken at 100 to 400-fold magnification.
(§15) The relative viability of persister cells was determined by the live/dead fluorescence measurements ratio and microscopic observations were used to confirm the presence or absence of live cells.
as §9

[7] = tested on: Staphylococcus spp (4) persister cells; assay: as above; assay type: cell-based; conditions: agent alone; persister cells
Procedure: as §14, §15, §9

[8] = tested on: P. aeruginosa ATCC BAA-47 (PAO1) biofilm cells; assay: MBEC against 24 h-old biofilm; assay type: cell-based, Pseudomonas aeruginosa; conditions: for MBEC [alone], P. aeruginosa ATCC BAA-47 biofilm cells: agent alone
Procedure: as §10, §11, §12, §13
(§16) The assessment of the activity of NP108 and cysteamine against bacterial biofilms was carried out with 24 h-old biofilms and the activity of both compounds in combination was also determined. The activity of the antimicrobial agents against bacterial biofilms was determined by their activity against the biofilm cells and against the persister cells.

[9] = tested on: S. aureus DSM 11729 biofilm cells; assay type: cell-based, Staphylococcus aureus; conditions: for MBEC, S. aureus (MRSA) DSM 11729 biofilm cells: agent alone
Procedure: as §10, §11, §12, §13, §16

[10] = tested on: P. aeruginosa ATCC27853 biofilm cells; assay type: cell-based, Pseudomonas aeruginosa; conditions: agent alone; FIG. 21a
Procedure: as §11, §12, §13

[11] = tested on: P. aeruginosa ATCC BAA-47 (PAO1) persister cells; assay: Relative viability of persister cells (SYTO9/PI live/dead fluorescence, microscopy); assay type: cell-based, Pseudomonas aeruginosa; conditions: agent alone; relative viability remained significant; FIG. 12
Procedure: as §14, §15
The activity of NP108 and cysteamine against the persister cells was assessed using a fluorescence staining method to determine the relative viability of the cells. The nucleic acid-binding fluorescent molecules used were SYTO9 and PI, which penetrate all bacterial cells (green fluorescence) and membrane-disrupted cells (red fluorescence), respectively.

[12] = tested on: S. aureus DSM 11729 persister cells; assay: as above; assay type: cell-based, Staphylococcus aureus; conditions: agent alone, at low concentrations; FIG. 18
Procedure: as §14, §15
The activity of NP108 and cysteamine against the persister cells was assessed using a fluorescence staining method to determine the relative viability of the cells. […]

[13] = tested on: Gram-positive and Gram-negative persister cells; assay: Relative viability of persister cells (SYTO9/PI live/dead fluorescence); assay type: cell-based; conditions: lowest concentration tested; FIG. 10
Procedure: as §14, §15

[14] = tested on: S. aureus DSM 11729 (MRSA); conditions: data not shown; for bactericidal concentration, S. aureus DSM 11729: agent alone
[15] = tested on: P. aeruginosa ATCC BAA-47; conditions: data not shown; for bactericidal concentration, P. aeruginosa ATCC BAA-47: agent alone
[16] = agent alone, prevention of biofilm formation, 24 h

NCCS [Cysteamine, cysteamine, reference compound]
MIC ([1]; Staphylococcus aureus, agent alone, prevention of biofilm formation, 24 h): > 320 µg/mL | MIC ([2]; Pseudomonas aeruginosa, ATCCBAA47, agent alone, prevention of biofilm formation, 24 h): 320 µg/mL | MIC ([3]; Pseudomonas aeruginosa): 300 to 2500 µg/mL | MIC (Staphylococcus spp (4); Staphylococcus): 300 to 625 µg/mL | MBEC, P. aeruginosa strains (7) [4]: >5,000 μg/ml | MBEC, Staphylococcus spp (4) [5]: >25,000 μg/ml | Persisters, active concentration, P. aeruginosa strains (7) [6]: 500-6,250 μg/ml | Persisters, active concentration, Staphylococcus spp (4) [7]: 6,250-12,500 μg/ml | MBEC [alone], P. aeruginosa ATCC BAA-47 biofilm cells [8]: > 100.00 µg/mL | MBEC cysteamine[combination], P. aeruginosa ATCC BAA-47 biofilm cells ([8]; with 250 μg/ml NP108): 62.5 µg/mL | MBEC, S. aureus (MRSA) DSM 11729 biofilm cells [9]: 250 µg/mL | MBEC cysteamine[combination], S. aureus DSM 11729 biofilm cells ([9]; with 31.25 μg/ml NP108): 62.5 µg/mL | MBEC alone, P. aeruginosa ATCC27853 [10]: more than 100 mg/ml | activity against persister cells of P. aeruginosa ATCC BAA-47 [11]: lack of activity | activity against persister cells of S. aureus DSM 11729 [12]: lack of activity | concentration that suppressed the viability of Gram-positive and Gram-negative persister cells [13]: ≤ 6.25 mg/mL | bactericidal concentration, S. aureus DSM 11729 [14]: more than 320 μg/ml | bactericidal concentration, P. aeruginosa ATCC BAA-47 [15]: > 320 µg/mL

poly-L-lysine, hydrobromide [NP108]
MIC of NP108 in the presence of cysteamine, S. aureus DSM 11729 ([1]; 320 μg/ml cysteamine added): 15.625 µg/mL | MIC, S. aureus DSM 11729 [1, 16]: 125 µg/mL | MIC of NP108 in the presence of cysteamine, S. aureus DSM 11729 ([1]; in the presence of 40 μg/ml cysteamine): 31.25 µg/mL | MIC, P. aeruginosa ATCC BAA-47 [2, 16]: 62.5 µg/mL | MIC of NP108 in the presence of cysteamine, P. aeruginosa ATCC BAA-47 ([2]; in the presence of 160 μg/ml cysteamine): 31.25 µg/mL | MIC, P. aeruginosa strains (7) [3]: 31.25 to 500 µg/mL | MIC, Staphylococcus spp (4) (Staphylococcus spp (4)): 16 to 125 µg/mL | MBEC, Staphylococcus spp (4) [5]: 125 to 250 µg/mL | Persisters, active concentration, Staphylococcus spp (4) [7]: >500 µg/mL | MBEC [alone], P. aeruginosa ATCC BAA-47 biofilm cells [8]: > 500 µg/mL | NP108 concentration giving complete inhibition of bacterial growth, P. aeruginosa ATCC BAA-47 biofilm cells ([8]; with 31.25 μg/ml cysteamine): 500 µg/mL | MBEC NP108[combination], P. aeruginosa ATCC BAA-47 biofilm cells ([8]; with 62.5 to 500 μg/ml cysteamine): 250 µg/mL | MBEC, S. aureus (MRSA) DSM 11729 biofilm cells [9]: 125 µg/mL | MBEC NP108[combination], S. aureus DSM 11729 biofilm cells ([9]; with 62.5 μg/ml cysteamine): 31.25 µg/mL | activity against persister cells of P. aeruginosa ATCC BAA-47 [11]: lack of activity | activity against persister cells of S. aureus DSM 11729 [12]: lack of activity | bactericidal concentration, S. aureus DSM 11729 [14]: 125 µg/mL | bactericidal concentration of NP108 in combination, S. aureus DSM 11729 ([14]; with ≥80 μg/ml cysteamine): 62.5 µg/mL | bactericidal concentration of NP108 in combination, S. aureus DSM 11729 ([14]; with ≥160 μg/ml cysteamine): 31.25 µg/mL | bactericidal concentration, P. aeruginosa ATCC BAA-47 [15]: 250 µg/mL | bactericidal concentration of NP108 in combination, P. aeruginosa ATCC BAA-47 ([15]; with 320 μg/ml cysteamine): 125 µg/mL
